{"source": "ChEMBL document CHEMBL4725454", "about": "“Degradation of LRRK2 in the Treatment of Parkinson's Disease” (ACS Med Chem Lett, 2020)", "key": {"[1]": {"target": "Protein cereblon/Leucine-rich repeat serine/threonine-protein kinase 2 (Mus musculus, UniProt Q5S006+Q8C7D2, G2019S)", "assay": "Protac activity at CRBN/LRRK2 G2019S homozygous knock-in mutant in mouse MEF cells assessed as induction of LRRK2 degradation by measuring reduction in LRRK2 phosphorylation at S935 residue by Invitrogen Adapta assay", "assay_type": "cell-based"}, "[2]": {"target": "Protein cereblon/Leucine-rich repeat serine/threonine-protein kinase 2 (Mus musculus, UniProt Q5S006+Q8C7D2)", "assay": "Protac activity at CRBN/LRRK2 in mouse MEF cells assessed as induction of LRRK2 degradation by measuring reduction in LRRK2 phosphorylation at S935 residue by Invitrogen Adapta assay", "assay_type": "cell-based"}}}
{"molecule": "CC1(Oc2ccc3[nH]nc(-c4cc(N5CCN(C(=O)CCOCCNc6cccc7c6C(=O)N(C6CCC(=O)NC6=O)C7=O)CC5)ncn4)c3c2)CC1", "note": "(stereo unspecified)", "values": [{"measurement": "IC50", "setting": "[1]", "result": 1.08, "unit": "nM"}, {"measurement": "IC50", "setting": "[2]", "result": 1.59, "unit": "nM"}]}
{"molecule": "CC1(Oc2ccc3[nH]nc(-c4cc(N5CCN(C(=O)CCOCCOCCOCCOCCNc6cccc7c6C(=O)N(C6CCC(=O)NC6=O)C7=O)CC5)ncn4)c3c2)CC1", "note": "(stereo unspecified)", "values": [{"measurement": "IC50", "setting": "[1]", "result": 0.98, "unit": "nM"}, {"measurement": "IC50", "setting": "[2]", "result": 1.46, "unit": "nM"}]}
{"molecule": "CNc1nc(Nc2ccc(C(=O)N3CCN(C(=O)CCOCCOCCOCCOCCNc4cccc5c4C(=O)N(C4CCC(=O)NC4=O)C5=O)CC3)cc2OC)ncc1C(F)(F)F", "note": "(stereo unspecified)", "values": [{"measurement": "IC50", "setting": "[1]", "result": 2, "unit": "nM"}, {"measurement": "IC50", "setting": "[2]", "result": 4, "unit": "nM"}]}
{"molecule": "CC1(Oc2ccc3[nH]nc(-c4cc(N5CCN(C(=O)CCOCCNc6cccc7c6C(=O)N(C6CCC(=O)NC6=O)C7)CC5)ncn4)c3c2)CC1", "note": "(stereo unspecified)", "values": [{"measurement": "IC50", "setting": "[1]", "result": 1.47, "unit": "nM"}, {"measurement": "IC50", "setting": "[2]", "result": 2.5, "unit": "nM"}]}
{"molecule": "CC1(Oc2ccc3[nH]nc(-c4cc(N5CCN(C(=O)CCOCCOCCOCCOCCNc6cccc7c6C(=O)N(C6CCC(=O)NC6=O)C7)CC5)ncn4)c3c2)CC1", "note": "(stereo unspecified)", "values": [{"measurement": "IC50", "setting": "[1]", "result": 3.16, "unit": "nM"}, {"measurement": "IC50", "setting": "[2]", "result": 3.14, "unit": "nM"}]}
{"molecule": "CNc1nc(Nc2ccc(C(=O)N3CCN(C(=O)CCCCCCCCOc4cccc5c4C(=O)N(C4CCC(=O)NC4=O)C5=O)CC3)cc2OC)ncc1C(F)(F)F", "note": "(stereo unspecified)", "values": [{"measurement": "IC50", "setting": "[1]", "result": 1, "unit": "nM"}, {"measurement": "IC50", "setting": "[2]", "result": 2, "unit": "nM"}]}
{"molecule": "CC1(Oc2ccc3[nH]nc(-c4cc(N5CCN(C(=O)CCOCCOCCNc6cccc7c6C(=O)N(C6CCC(=O)NC6=O)C7=O)CC5)ncn4)c3c2)CC1", "note": "(stereo unspecified)", "values": [{"measurement": "IC50", "setting": "[1]", "result": 1.13, "unit": "nM"}, {"measurement": "IC50", "setting": "[2]", "result": 1.24, "unit": "nM"}]}
{"molecule": "CC1(Oc2ccc3[nH]nc(-c4cc(N5CCN(C(=O)CCOCCOCCNc6cccc7c6C(=O)N(C6CCC(=O)NC6=O)C7)CC5)ncn4)c3c2)CC1", "note": "(stereo unspecified)", "values": [{"measurement": "IC50", "setting": "[1]", "result": 2.24, "unit": "nM"}, {"measurement": "IC50", "setting": "[2]", "result": 2.58, "unit": "nM"}]}
